Values quoted from earlier work in patent US10934070B2, “Anti-scalping pharmaceutical packaging film” (BEMIS COMPANY, INC., priority 2014, dated 2021).

Conditions: at 25° C.

SMILES: CN1CCCC1c1cccnc1 (stereo not shown) [Nicotine]
- vapor pressure: 5.65 Pa
